In the kinase profiling compilation of Christmann-Franck et al. (2016):
Where “and” joins values, the source holds several entries; their conditions need not be identical. Identical values can stand only once.

Tests used:
Experiment in all cases: radiometric filter-binding kinase assay, Kinase HotSpot
Settings in all cases: compound 0.5 µM; ATP 10 µM
[1] = molecular target: ACVR1 (human) (UniProt Q04771)
[2] = molecular target: BRSK2 (human) (UniProt Q8IWQ3)
[3] = molecular target: CAMK2G (human) (UniProt Q13555)
[4] = molecular target: CSNK1A1 (human) (UniProt P48729)
[5] = molecular target: DDR2 (human) (UniProt Q16832)
[6] = molecular target: DYRK1B (human) (UniProt Q9Y463)
[7] = molecular target: DYRK2 (human) (UniProt Q92630)
[8] = molecular target: EPHA2 (human) (UniProt P29317)
[9] = molecular target: EPHB3 (human) (UniProt P54753)
[10] = molecular target: GRK4 (human) (UniProt P32298)
[11] = molecular target: HCK (human) (UniProt P08631)
HCK (human), sequence (P08631 whole entry, looked up): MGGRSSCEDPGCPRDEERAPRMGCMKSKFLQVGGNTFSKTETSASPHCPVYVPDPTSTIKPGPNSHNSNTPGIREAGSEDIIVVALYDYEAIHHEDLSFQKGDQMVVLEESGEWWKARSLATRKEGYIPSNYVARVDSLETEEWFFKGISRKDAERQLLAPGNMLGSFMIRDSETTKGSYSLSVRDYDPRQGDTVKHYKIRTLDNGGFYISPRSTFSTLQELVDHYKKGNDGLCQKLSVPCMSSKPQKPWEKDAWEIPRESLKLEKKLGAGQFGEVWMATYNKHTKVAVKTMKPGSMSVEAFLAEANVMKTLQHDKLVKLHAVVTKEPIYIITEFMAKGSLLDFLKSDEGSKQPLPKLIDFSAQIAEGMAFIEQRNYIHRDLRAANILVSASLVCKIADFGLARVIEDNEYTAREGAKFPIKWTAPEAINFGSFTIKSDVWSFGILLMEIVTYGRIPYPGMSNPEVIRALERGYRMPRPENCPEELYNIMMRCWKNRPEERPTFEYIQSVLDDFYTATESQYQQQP

[12] = molecular target: HIPK1 (human) (UniProt Q86Z02)
[13] = molecular target: JAK3 JH1 JH2 (human) (UniProt P52333)
[14] = molecular target: MAP3K3 (human) (UniProt Q99759)
[15] = molecular target: MAPK12 (human) (UniProt P53778)
[16] = molecular target: MAPK8 (human) (UniProt P45983)
MAPK8 (human), sequence (P45983 whole entry, looked up): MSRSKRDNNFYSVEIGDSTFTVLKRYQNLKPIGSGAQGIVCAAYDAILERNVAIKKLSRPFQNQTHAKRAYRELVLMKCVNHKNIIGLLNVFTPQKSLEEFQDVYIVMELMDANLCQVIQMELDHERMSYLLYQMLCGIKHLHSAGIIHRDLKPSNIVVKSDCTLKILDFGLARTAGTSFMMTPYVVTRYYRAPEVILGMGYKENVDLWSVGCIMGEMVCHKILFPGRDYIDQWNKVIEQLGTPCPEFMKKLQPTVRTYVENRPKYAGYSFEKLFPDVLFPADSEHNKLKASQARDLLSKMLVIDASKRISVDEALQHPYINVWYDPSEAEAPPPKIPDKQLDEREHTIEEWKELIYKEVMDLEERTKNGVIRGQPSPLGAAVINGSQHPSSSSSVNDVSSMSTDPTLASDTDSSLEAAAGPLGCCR

[17] = molecular target: MAPKAPK5 (human) (UniProt Q8IW41)
MAPKAPK5 (human), sequence (Q8IW41 whole entry, looked up): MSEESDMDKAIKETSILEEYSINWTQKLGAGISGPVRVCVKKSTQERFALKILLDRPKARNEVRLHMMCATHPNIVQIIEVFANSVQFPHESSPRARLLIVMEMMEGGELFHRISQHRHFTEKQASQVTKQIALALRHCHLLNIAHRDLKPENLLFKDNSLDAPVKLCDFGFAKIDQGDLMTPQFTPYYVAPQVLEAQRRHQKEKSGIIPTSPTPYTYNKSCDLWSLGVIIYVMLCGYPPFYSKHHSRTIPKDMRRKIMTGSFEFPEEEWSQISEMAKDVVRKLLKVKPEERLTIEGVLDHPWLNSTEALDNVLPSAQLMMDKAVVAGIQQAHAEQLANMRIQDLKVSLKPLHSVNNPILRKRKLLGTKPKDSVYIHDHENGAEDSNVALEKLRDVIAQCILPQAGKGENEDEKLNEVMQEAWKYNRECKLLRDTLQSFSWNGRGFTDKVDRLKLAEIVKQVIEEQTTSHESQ

[18] = molecular target: MARK3 (human) (UniProt P27448)
[19] = molecular target: MET (human) (UniProt P08581)
MET (human), sequence (P08581 whole entry, looked up): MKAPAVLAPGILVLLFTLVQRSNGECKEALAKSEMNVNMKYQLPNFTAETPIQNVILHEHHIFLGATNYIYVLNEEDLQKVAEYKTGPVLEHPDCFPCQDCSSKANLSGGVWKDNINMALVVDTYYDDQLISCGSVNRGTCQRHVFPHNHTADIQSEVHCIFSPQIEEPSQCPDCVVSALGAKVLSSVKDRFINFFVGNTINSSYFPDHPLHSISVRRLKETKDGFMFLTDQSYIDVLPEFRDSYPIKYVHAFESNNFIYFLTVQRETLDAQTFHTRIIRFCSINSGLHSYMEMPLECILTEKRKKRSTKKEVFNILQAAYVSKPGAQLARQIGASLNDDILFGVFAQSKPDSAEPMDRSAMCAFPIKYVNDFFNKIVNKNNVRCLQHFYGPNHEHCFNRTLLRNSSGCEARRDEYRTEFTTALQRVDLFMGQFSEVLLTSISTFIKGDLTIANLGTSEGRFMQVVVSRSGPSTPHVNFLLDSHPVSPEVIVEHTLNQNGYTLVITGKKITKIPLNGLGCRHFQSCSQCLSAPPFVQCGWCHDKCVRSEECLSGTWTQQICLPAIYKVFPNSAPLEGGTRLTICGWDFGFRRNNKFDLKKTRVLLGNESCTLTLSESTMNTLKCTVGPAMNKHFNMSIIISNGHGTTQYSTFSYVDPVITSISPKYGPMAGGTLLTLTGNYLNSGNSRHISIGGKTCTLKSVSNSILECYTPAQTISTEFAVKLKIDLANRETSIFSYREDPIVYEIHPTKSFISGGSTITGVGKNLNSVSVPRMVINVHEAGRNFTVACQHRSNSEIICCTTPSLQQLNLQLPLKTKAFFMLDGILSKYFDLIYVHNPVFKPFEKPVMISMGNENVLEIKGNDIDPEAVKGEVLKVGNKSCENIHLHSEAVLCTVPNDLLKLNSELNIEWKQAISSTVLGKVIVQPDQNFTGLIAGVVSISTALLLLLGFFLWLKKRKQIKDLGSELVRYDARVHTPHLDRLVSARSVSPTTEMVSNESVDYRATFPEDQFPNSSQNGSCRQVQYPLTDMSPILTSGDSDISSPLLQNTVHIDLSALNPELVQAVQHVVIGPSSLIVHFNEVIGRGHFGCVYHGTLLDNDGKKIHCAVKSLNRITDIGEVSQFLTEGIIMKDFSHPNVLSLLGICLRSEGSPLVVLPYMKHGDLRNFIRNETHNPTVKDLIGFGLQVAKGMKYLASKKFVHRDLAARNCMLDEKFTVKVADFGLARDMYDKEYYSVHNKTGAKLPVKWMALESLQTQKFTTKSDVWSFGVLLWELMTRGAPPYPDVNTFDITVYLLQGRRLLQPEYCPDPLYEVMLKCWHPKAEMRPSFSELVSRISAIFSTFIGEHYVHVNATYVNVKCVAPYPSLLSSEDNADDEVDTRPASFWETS

[20] = molecular target: MINK1 (human) (UniProt Q8N4C8)
[21] = molecular target: MST4 (human) (UniProt Q9P289)
MST4 (human), sequence (Q9P289 whole entry, looked up): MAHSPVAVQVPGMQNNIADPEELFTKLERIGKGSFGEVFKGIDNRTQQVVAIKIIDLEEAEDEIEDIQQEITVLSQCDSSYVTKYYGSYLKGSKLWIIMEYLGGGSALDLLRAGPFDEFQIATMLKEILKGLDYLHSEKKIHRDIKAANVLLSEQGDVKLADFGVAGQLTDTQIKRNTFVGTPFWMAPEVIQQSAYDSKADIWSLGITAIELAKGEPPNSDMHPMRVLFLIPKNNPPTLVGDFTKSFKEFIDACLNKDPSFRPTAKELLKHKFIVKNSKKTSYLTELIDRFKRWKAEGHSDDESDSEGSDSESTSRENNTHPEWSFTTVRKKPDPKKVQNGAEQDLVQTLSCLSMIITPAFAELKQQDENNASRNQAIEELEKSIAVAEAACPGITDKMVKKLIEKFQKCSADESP

[22] = molecular target: NEK1 (human) (UniProt Q96PY6)
[23] = molecular target: NEK7 (human) (UniProt Q8TDX7)
[24] = molecular target: NLK (human) (UniProt Q9UBE8)
[25] = molecular target: NTRK1 (human) (UniProt P04629)
[26] = molecular target: PDGFRA (human) (UniProt P16234)
[27] = molecular target: PNCK (human) (UniProt Q6P2M8)
[28] = molecular target: PRKCZ (human) (UniProt Q05513)
[29] = molecular target: PRKD2 (human) (UniProt Q9BZL6)
[30] = molecular target: PRKG1 (human) (UniProt Q13976)
[31] = molecular target: PTK2 (human) (UniProt Q05397)
[32] = molecular target: RPS6KA1 KD1 KD2 (human) (UniProt Q15418)
[33] = molecular target: RPS6KB1 (human) (UniProt P23443)
[34] = molecular target: SLK (human) (UniProt Q9H2G2)
[35] = molecular target: SRPK3 (human) (UniProt Q9UPE1)
SRPK3 (human), sequence (Q9UPE1 whole entry, looked up): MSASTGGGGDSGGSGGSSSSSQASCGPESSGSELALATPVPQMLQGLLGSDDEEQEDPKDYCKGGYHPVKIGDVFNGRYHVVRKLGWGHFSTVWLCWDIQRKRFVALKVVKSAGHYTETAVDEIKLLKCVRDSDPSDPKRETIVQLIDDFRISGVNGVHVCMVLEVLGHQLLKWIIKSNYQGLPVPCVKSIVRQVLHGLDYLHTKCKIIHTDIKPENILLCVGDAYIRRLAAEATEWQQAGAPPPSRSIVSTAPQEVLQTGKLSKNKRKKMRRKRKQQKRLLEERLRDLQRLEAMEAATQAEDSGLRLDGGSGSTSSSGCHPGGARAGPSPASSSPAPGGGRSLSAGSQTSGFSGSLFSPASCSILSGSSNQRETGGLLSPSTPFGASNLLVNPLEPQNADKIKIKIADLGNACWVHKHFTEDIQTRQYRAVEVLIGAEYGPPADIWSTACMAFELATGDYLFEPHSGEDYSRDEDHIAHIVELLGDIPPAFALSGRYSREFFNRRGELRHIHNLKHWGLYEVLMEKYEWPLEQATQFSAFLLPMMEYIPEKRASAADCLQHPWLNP

[36] = molecular target: TBK1 (human) (UniProt Q9UHD2)
TBK1 (human), sequence (Q9UHD2 whole entry, looked up): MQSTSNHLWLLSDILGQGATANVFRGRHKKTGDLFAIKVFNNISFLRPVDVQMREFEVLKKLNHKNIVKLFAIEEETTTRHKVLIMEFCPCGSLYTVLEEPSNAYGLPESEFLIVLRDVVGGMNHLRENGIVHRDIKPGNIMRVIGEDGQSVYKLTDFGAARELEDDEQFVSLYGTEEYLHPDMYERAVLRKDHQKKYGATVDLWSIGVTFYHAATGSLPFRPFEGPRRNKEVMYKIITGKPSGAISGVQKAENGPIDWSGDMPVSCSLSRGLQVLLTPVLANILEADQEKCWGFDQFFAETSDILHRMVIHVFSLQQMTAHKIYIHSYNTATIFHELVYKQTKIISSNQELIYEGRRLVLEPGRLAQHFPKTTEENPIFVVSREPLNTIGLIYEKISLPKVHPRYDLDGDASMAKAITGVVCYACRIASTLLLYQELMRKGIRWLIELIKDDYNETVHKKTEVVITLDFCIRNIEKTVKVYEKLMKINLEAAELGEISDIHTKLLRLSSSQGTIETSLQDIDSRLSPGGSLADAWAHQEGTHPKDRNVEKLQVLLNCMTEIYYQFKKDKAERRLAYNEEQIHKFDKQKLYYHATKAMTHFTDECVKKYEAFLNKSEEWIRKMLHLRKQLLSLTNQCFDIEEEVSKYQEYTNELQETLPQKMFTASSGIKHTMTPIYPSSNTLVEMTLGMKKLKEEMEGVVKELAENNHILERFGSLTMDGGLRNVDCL

[37] = molecular target: CAMK1G (human) (UniProt Q96NX5)
[38] = molecular target: FGFR3 (human) (UniProt P22607)
[39] = molecular target: NEK11 (human) (UniProt Q8NG66)
[40] = molecular target: NTRK3 (human) (UniProt Q16288)
[41] = molecular target: PRKD1 (human) (UniProt Q15139)

ACVR1 (human), sequence (Q04771 whole entry, looked up): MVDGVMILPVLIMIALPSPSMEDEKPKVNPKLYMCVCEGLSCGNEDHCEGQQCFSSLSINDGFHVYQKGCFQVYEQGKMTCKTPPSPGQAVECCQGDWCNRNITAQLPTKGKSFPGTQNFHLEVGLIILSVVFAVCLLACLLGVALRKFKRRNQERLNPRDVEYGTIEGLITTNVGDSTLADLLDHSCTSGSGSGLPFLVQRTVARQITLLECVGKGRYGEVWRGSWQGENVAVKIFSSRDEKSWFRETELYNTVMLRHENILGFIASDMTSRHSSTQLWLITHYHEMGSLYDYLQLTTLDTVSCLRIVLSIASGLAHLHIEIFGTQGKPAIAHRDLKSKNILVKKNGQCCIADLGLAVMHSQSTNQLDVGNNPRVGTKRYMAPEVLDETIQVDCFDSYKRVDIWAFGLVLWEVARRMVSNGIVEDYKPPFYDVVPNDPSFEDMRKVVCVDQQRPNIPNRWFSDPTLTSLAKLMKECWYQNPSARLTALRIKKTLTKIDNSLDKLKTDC

Compound | residual activity [1] | residual activity [2] | residual activity [3] | residual activity [4] | residual activity [5] | residual activity [6] | residual activity [7] | residual activity [9] | residual activity [10] | residual activity [11] | residual activity [12] | residual activity [14] | residual activity [16] | residual activity [17] | residual activity [18] | residual activity [19] | residual activity [20] | residual activity [21] | residual activity [22] | residual activity [24] | further results
CO[C@@H]1[C@H](N(C)C(=O)c2ccccc2)C[C@H]2O[C@]1(C)n1c3ccccc3c3c4c(c5c6ccccc6n2c5c31)C(=O)NC4 | 95.5% | 16.4% | 43.9% | 96.2% | 380% | 35.6% | 108% | 90.5% | 94.4% | 14.9% | 101% | 31% | 88.3% | 92% | 4.76% | 89.4% | 29.2% | 23.8% | 66.2% | 96.9% | residual activity [8]: 92.3%; residual activity [13]: 0.781%; residual activity [15]: 95.8%; residual activity [23]: 101%; residual activity [25]: 5.85%; residual activity [26]: 30%; residual activity [27]: 92.9%; residual activity [28]: 98.6%; residual activity [29]: 62.9%; residual activity [30]: 18.8% and 8.37%; residual activity [31]: 87.4%; residual activity [32]: 0.432%; residual activity [33]: 19.4%; residual activity [34]: 30.5%; residual activity [35]: 93.3%; residual activity [36]: 3.22%
C[C@@H]1CCN(C(=O)CC#N)C[C@@H]1N(C)c1ncnc2[nH]ccc12 | 104% | 86.9% | 127% | 99.7% | 104% | 97% | 112% | 54.9% | 93.5% | 88.3% | 98.1% | 115% | 108% | 97.3% | 78.6% | 86.7% | 100% | 105% | 84.6% | 110% | residual activity [37]: 97.8%; residual activity [8]: 95.8%; residual activity [38]: 95.3%; residual activity [39]: 91.7%; residual activity [25]: 94.1%; residual activity [40]: 90%; residual activity [26]: 104%; residual activity [27]: 104%; residual activity [28]: 91.7%; residual activity [41]: 97.3%; residual activity [30]: 82% and 87.8%; residual activity [31]: 103%; residual activity [32]: 90.9%; residual activity [33]: 103%; residual activity [34]: 89.2%; residual activity [35]: 103%; residual activity [36]: 92.5%
COc1cc(Nc2c(C#N)cnc3cc(OCCCN4CCN(C)CC4)c(OC)cc23)c(Cl)cc1Cl | 93.3% | 94.2% | 131% | 49.5% | 105% | 97% | 104% | 49.4% | 92.4% | 11.9% | 96.3% | 11.8% | 105% | 94.7% | 65.4% | 84.5% | 1.21% | 5.9% | 15.2% | 101% | residual activity [37]: 82.7%; residual activity [38]: 82.6%; residual activity [13]: 88.5%; residual activity [15]: 99.9%; residual activity [23]: 94.6%; residual activity [25]: 106%; residual activity [26]: 86.9%; residual activity [27]: 109%; residual activity [28]: 89.7%; residual activity [41]: 43.7%; residual activity [29]: 35.5%; residual activity [30]: 85.5% and 94.9%; residual activity [31]: 96%; residual activity [32]: 80.4%; residual activity [33]: 87.7%; residual activity [34]: 21.6%; residual activity [35]: 106%; residual activity [36]: 65.7%
